Experiments:
[1] = system: HMEC cells; experiment: Annexin V/PI staining in HMEC cells; format: cell-based; details: 25 nM
Procedure: FIG. 11 illustrates an embodiment of the present invention and illustrates SIM-1 and SIM-2 induced apoptosis in MDA-MB-468 TNBC cells, but not HMEC control cells. MDA-MB-468 cells were treated with increasing doses of (A) SIM-1 and (B) SIM-2 for 48 hrs followed by lactate dehydrogenase (LDH) release assay in the supernatants. The result was offset with cell-bound LDH and presented as a percent of DMSO control as discussed under method section. Half-maximal cytotoxicity or CT50 analyses were performed plotting maximum response as an index of increasing doses of (C) SIM-1 and (D) SIM-2. AnnexinV (green) and propidium iodide (red) dual-labeling were performed to evaluate apoptotic response in MDA-MB-468 cells once treated with increasing doses of (E) SIM-1 and (F) SIM-2 for 24 hrs. Nuclei were stained with DAPI. TUNEL assay was performed in MDA-MB-468 cells after treatment with 25 nM of (G) SIM-1. Brown-colored TUNEL bodies were visualized at cresyl violet-stained blue nuclei. (H) The number of TUNEL bodies were counted as a percent of 100 cresyl violet-stained blue cells. Ten independent images were counted for the quantification study. Similarly, SIM-2 was assessed for (I) TUNEL and (J) subsequent quantification analyses. One-way ANOVA was performed to test the significance of mean between groups at **p<0.01 and ****p<0.0001. […]

[2] = target: STAT3 (Homo sapiens, UniProt P40763); experiment: Protein thermal shift assay with recombinant STAT3; format: binding; design: purchased Active motif 81095; details: for ΔTm of STAT3: cut-off 2° C.; for lowest concentration that significantly (>2° C.) shifted the melt curve of STAT3: as low as; for EC50: non-linear hyperbolic binding curve, read-out: EC50 (half-maximal binding, maximum fluorescence versus dose)
Procedure: FIG. 5 illustrates an embodiment of the present invention and illustrates evaluations of SIM-1 and SIM-2 as STAT3 inhibitors. (A) Protein thermal shift assay was performed to assess the melting of purified recombinant STAT3 (blue; 0.5 μg protein) (Tm=melting temperature=68.88° C.). The representative melting curves were derived after adding SIM-1 (red; 4 nM), SIM-2 (purple; 8 nM), and positive control stattic (grey; 20 nM) to the STAT3 protein. The differences of melting temperature (ΔTm) between pure protein and protein+ligands are −4.54° C., −4.16° C., and 0.39° C. for SIM-1, SIM-2, and stattic (ΔTm^cut-off>2° C.). (B) Phospho protein array analysis was conducted in cell lysates of MDA-MB-468 cells treated with DMSO control (top left), 25 ng/mL EGF (top right), EGF+10 nM SIM-1 (bottom left), and EGF+SIM-2 (bottom right) for 24 hrs. Each colored arrowhead represents a specific phosphoprotein, and the description was added in the bottom of array images. S=serine and Y=tyrosine. Relative levels of (C) Tyrosine 705 (Y705) phosphorylated STAT3, (D) Serine 727 (S727) phosphorylated STAT3, (E) Tyrosine 693 (Y693) phosphorylated STAT4, (F) Tyrosine 694 ([…]) phosphorylated STAT5A had been derived after normalizing the spot densities (n=5) with respective β-actin spots. Results are mean±SD of five different spot analyses. One-way ANOVA was adopted to test the significance of mean between groups at **p<0.01, and ****p<0.0001. Ns=no significance. Thermal shift assays of increasing doses of (G) SIM-1, (H) SIM-2, and (I) stattic with purified STAT1 protein (0.5 μg protein). The respective ΔTm values were given with the plot after matching with the color code. Similarly, full-length STAT5b protein melting was assessed with (J) SIM-1, (K) SIM-2, and (L) stattic. Results are confirmed after three different experiments.
FIG. 6 illustrates an embodiment of the present invention and illustrates dose-dependent curves of maximum fluorescence for SIM1 and SIM2. Protein thermal shift assay of recombinant STAT3 was performed with increasing doses of (A) SIM-1, (B) SIM-2, and (C) positive control “Stattic”. The maximum fluorescence for each dose was derived and then plotted in GraphPad Prism software with respective doses. The resultant non-liner hyperbolic curves provide half-maximal binding (EC50) for all three compounds.
This example provides a representative study of the present disclosure to test if SIM1 and SIM2 served as ligands of STAT3. Therefore, the present invention adopted a protein thermal shift assay in which […] of recombinant human STAT3 protein (active motif) was incubated with increasing doses of SIM1 and SIM2 followed by the execution of melting analysis starting from 25 to 95° C. as described elsewhere.

[3] = system: STAT3-dependent tumor-promoting genes; experiment: Gene array of 66 STAT3-dependent tumor-promoting genes in PDX tumors; format: in vivo, mouse; details: tumor tissue; for number of the 66 STAT3-dependent genes strongly downregulated: out of 66 genes
Procedure: FIG. 15 illustrates an embodiment of the present invention and illustrates SIM 1 and 2 inhibited Y705P phosphorylation of STAT3 and the expressions of STAT3-dependent tumor supportive genes. (A) DAB immunostaining of Y705P STAT3 in tumor parenchyma of all three groups. (B) Quantitative analysis of Y705P STAT3-ir cells was performed by counting Y705P STAT3 cells in 15 different images, converting into a percent scale, and then plotting in a scatter histogram. On-way ANOVA followed by multiple comparison test indicated ****p<0.0001 versus control. (C) DAB immunostaining of S727P STAT3 followed by a (D) quantitative analysis of S727P STAT3-ir cells was performed in 15 different images and then plotted as a percent of total cells by a scatter histogram. On-way ANOVA represents no significance (NS) between groups. (E) Immunoblot analyses of Y705PSTAT3 (Rabbit […] antibody Cat #710093; Invitrogen), S727PSTAT3 (Mouse 1° antibody cat #MA5-15208; Invitrogen) followed by normalization with loading control β-actin (Mouse 1° antibody cat #MA1-744; Invitrogen). (F) A cDNA-based gene array of 66 STAT3-dependent tumor promoting genes were analyzed in TNBC tumors of vehicle-, SIM-1-, and SIM-2-treated mice. (G) A scatter plot summarized the gene array results. Based on the relative levels of expressions, gene levels were classified as low, moderate, and highly expressed. Results are confirmed after three different experiments.
These genes include anti-apoptotic genes such as bcl-2, survivin, and bcl-xl; cell cycle progression markers such as cyclin D1, akt, and p21.

[4] = Solubility in aqueous solvent; format: physicochemical

Chain of STAT3 (P40763 whole entry): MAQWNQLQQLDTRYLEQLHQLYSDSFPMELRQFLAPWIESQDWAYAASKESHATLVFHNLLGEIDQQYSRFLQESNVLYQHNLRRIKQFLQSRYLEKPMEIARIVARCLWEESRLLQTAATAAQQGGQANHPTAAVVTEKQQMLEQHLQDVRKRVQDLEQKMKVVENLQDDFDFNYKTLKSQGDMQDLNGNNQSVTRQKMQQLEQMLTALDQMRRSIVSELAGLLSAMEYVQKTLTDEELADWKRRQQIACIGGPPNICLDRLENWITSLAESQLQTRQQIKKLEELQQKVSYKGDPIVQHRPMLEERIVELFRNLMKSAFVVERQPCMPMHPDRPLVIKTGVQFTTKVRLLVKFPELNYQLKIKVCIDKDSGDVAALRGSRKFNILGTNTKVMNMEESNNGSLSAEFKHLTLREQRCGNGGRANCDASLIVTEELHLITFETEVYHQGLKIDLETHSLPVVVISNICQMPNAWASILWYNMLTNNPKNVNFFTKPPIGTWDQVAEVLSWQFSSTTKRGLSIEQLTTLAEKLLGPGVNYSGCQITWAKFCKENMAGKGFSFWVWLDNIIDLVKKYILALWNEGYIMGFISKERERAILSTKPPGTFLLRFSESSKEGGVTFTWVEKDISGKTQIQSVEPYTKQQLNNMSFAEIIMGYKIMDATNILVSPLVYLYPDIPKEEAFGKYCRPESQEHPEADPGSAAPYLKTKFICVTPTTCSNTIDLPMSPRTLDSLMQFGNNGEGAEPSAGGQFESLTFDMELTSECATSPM

Compound	apoptosis in healthy normal cells (annexin V/PI) [1]	ΔTm of STAT3 ([2]; 6 nM ligand) [°C]	ΔTm of STAT3 ([2]; 8 nM ligand (FIG. 5A legend)) [°C]	lowest concentration that significantly (>2° C.) shifted the melt curve of STAT3 [2] [nM]	EC50 [2] [nM]	number of the 66 STAT3-dependent genes strongly downregulated [3]	tumor growth suppressor gene p53 expression [3]	solubility in aqueous solvent [4]	ΔTm of STAT3 ([2]; 4 nM ligand) [°C]
CCOC(=O)c1c(NC(C)=O)sc2c(Cl)c(/C=N/O)ccc12 [SIM-2, ethyl 2-acetamido-7-chloro-6-(hydroxyiminomethyl)-1-benzothiophene-3-carboxylate]	unable to induce apoptosis	−4.16	−4.16	5	5.26	55	significantly upregulated	partly soluble to insoluble	–
O=C(O)CCC(=O)NCc1csc2ccc(Cl)cc12 [SIM-1, 4-[(5-chloro-1-benzothiophen-3-yl)methylamino]-4-oxobutanoic acid]	unable to induce apoptosis	–	–	5	4.58	55	significantly upregulated	partly soluble to insoluble	−4.54
